System: human RS virus A2 strain
Assay: In vitro test for anti-RS virus proliferation inhibitory activity (quantitative RT-PCR of RS virus RNA copy number in infected Vero cells)
Assay type: cell-based
Conditions: 72 h; Vero cells infected with human RS virus A2 strain, 3 days of incubation, RS virus N gene RNA copy number by quantitative RT-PCR; read-out: Anti-RS virus Activity
How it was run: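 Vero cells infected with RSV A2 (1.7×10^4 TCID50/mL in inoculum mix) with compound in 10% FCS EMEM, 3 days at 37 °C, 5% CO2. Lysate viral N-gene RNA quantified by one-step SYBR qRT-PCR; copy number by comparative Ct relative to untreated infected cells.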

`CC(C)CS(=O)(=O)N1C[C@H](O)C[C@H]1c1nc(CCCc2ccccc2)no1` [Compound 3A, 3-(3-phenylpropyl)-5-[(2S,4R)-4-hydroxy-1-isobutylsulfonylpyrrolidin-2-yl]-1,2,4-oxadiazole] and `CC(C)(C)O[C@@H]1C[C@@H](c2nc(CCCc3ccccc3)no2)N(C(=O)c2ccc3cc(C(=O)N4C[C@H](OC(C)(C)C)C[C@H]4c4nc(CCCc5ccccc5)no4)ccc3c2)C1` [Compound 4-4, Naphthalene-2,6-diylbis (((2S,4R)-4-(tert-butoxy)-2-(3-(3-phenylpropyl)-1,2,4-oxadiazol-5-yl)pyrrolidin-1-yl)methanone)] cannot be ordered by IC50: over 50 µM for the first, over 50 µM for the second.

Same assay, conditions: 72 h; Vero cells infected with human RS virus A2 strain, 3 days of incubation, RS virus RNA copy number by quantitative RT-PCR; read-out: Anti-RS virus Activity

`CC(C)CS(=O)(=O)N1CC(c2ccccc2)C[C@H]1c1nc(CCCc2ccccc2)no1` (stereo in doubt) [Compound 7A, 3-(3-phenylpropyl)-5-[(2S,4S)-1-isobutylsulfonyl-4-phenylpyrrolidin-2-yl]-1,2,4-oxadiazole] and `CC(C)CS(=O)(=O)N1CC(CC2CCC2)CC1c1nc(CCCc2ccccc2)no1` (centres unmarked) [Compound 6A, 3-(3-phenylpropyl)-5-(1-isobutylsulfonyl-4-cyclobutylmethylpyrrolidin-2-yl)-1,2,4-oxadiazole] cannot be ordered by IC50: under 10 µM for the first, under 10 µM for the second.

`CC(C)NC(=O)N1CCC[C@H]1c1nc(CCCc2ccccc2)no1` [Compound 1G, (S)—N-isopropyl-2-(3-(3-phenylpropyl)-1,2,4-oxadiazol-5-yl)pyrrolidine-1-carboxamide] and `CC(C)NC(=O)N1CCCC[C@H]1c1nc(CCc2ccccc2)no1` [Compound 10G, (S)—N-isopropyl-2-(3-phenethyl-1,2,4-oxadiazol-5-yl) piperidine-1-carboxamide] cannot be ordered by IC50: over 50 µM for the first, over 50 µM for the second.

Going from `CC(C)CS(=O)(=O)N1CC2(CC2)C[C@H]1c1nc(CCCc2ccccc2)no1` [Compound 5A, 3-(3-phenylpropyl)-5-{(6S)-5-isobutylsulfonyl-5-azaspiro[2.4]hept-6-yl}-1,2,4-oxadiazole] to `CC(C)CS(=O)(=O)N1CCCC[C@H]1c1nc(CCc2ccccc2)no1` [Compound 10A, 3-(2-phenylethyl)-5-[(2S)-1-isobutylsulfonylpiperidin-2-yl]-1,2,4-oxadiazole], the IC50 rises from under 10 µM to over 50 µM.

`O=C(NCc1noc([C@@H]2C[C@@H](c3ccccc3)CN2S(=O)(=O)c2ccc(F)cc2)n1)c1cnc2ccccc2c1` [Compound 46AJ, N-((5-((2S,4S)-1-((4-fluorophenyl)sulfonyl)-4-phenylpyrrolidin-2-yl)-1,2,4-oxadiazol-3-yl)methyl)quinoline-3-carboxamide] and `O=C(Oc1ccccc1)N1CCC[C@H]1c1nc(CCCc2ccccc2)no1` [Compound 1M, Phenyl (S)-2-(3-(3-phenylpropyl)-1,2,4-oxadiazol-5-yl)pyrrolidine-1-carboxylate] fall in the same range of IC50: 10 to 50 µM for the first, 10 to 50 µM for the second.

First: CS(=O)(=O)N1C[C@H](F)C[C@H]1c1nc(CCCc2ccccc2)no1 [Compound 8C, 3-(3-phenylpropyl)-5-[(2S,4R)-1-methanesulfonyl-4-fluoropyrrolidin-2-yl]-1,2,4-oxadiazole]
Second: CCOC(=O)C1CCN(S(=O)(=O)N2CC3(CC3)C[C@H]2c2nc(CCCc3ccccc3)no2)CC1 [Compound 5AC, ethyl (S)-1-((6-(3-(3-phenylpropyl)-1,2,4-oxadiazole-5-yl)-5-azaspiro[2.4]heptan-5-yl)sulfonyl)piperidin-4-carboxylate]
The IC50 of the first is higher: over 50 µM for the first, 10 to 50 µM for the second.

`COC(=O)c1nc([C@@H]2CCCCN2S(=O)(=O)C2CCCCC2)sc1C` [Compound 35B, Methyl (S)-2-(1-(cyclohexylsulfonyl)piperidin-2-yl)-5-methylthiazole-4-carboxylate] and `CC(C)(C)NC(=O)N1[C@@H]2CC[C@@H](C2)[C@H]1c1nnc(Cc2c[nH]c3ccccc23)[nH]1` [Compound 24H, (1R,3S,4S)-3-(5-((1H-indol-3-yl)methyl)-4H-1,2,4-triazol-3-yl)-N-(tert-butyl)-2-azabicyclo[2.2.1]heptane-2-carboxamide] fall in the same range of IC50: 10 to 50 µM for the first, 10 to 50 µM for the second.

Reference: patent US20240327392A1, “HETEROCYCLOALKYL-SUBSTITUTED POLYHETEROAZOLE DERIVATIVES AS MEDICAMENTS FOR TREATING AND/OR PREVENTING RS VIRUS INFECTIONS” (ALBIUS SCIENCES ALPHA PRIVATE LIMITED, priority 2021, published 2024)
